Test results from article PMC8587999, “Assessment of the Activity of Decoquinate and Its Quinoline-O-Carbamate Derivatives against Toxoplasma gondii In Vitro and in Pregnant Mice Infected with T. gondii Oocysts” (Molecules, 2021).
≈ marks a conversion by molar mass, not a printed value. Where “and” joins values, the source holds several entries; their conditions need not be identical. Identical values can stand only once.

Columns and labels:
[1] = set-up: method as in PMID 19614848; settings: milking cows, formulated DCQ 0.5 mg/kg; cited from earlier work
[2] = tested on: T. gondii TgShSp1 oocysts; assay: DCQ efficacy assessment in pregnant CD1 mice orally infected with TgShSp1 oocysts; assay type: in vivo
Procedure: Twenty-nine female and 15 male CD1 mice, all 8 weeks of age, were used. Oestrus-synchronization and mating was carried out as described under Section 4.6. Subsequently, females were distributed randomly to 3 experimental groups: DCQ, DCQ + infection (n = 12); C+, corn oil + infection (n = 12); C-, only corn oil (n = 5). Infection was performed with 100 TgShSp1 oocysts at day 7 post-mating by oral gavage; the C− group received PBS. The treatment with DCQ suspended in corn oil at 10 mg/kg/day for 5 days; that only with corn oil was initiated at 2 days post-infection. At day 18 post-mating, pregnant mice were distributed into single cages and non-pregnant mice were housed together with 3–4 animals per cage. Dams gave birth between day 20–22, and clinical status, litter size, neonatal and postnatal mortality were recorded daily. Four weeks post-partum (p.p.), all mice were euthanized in a chamber by isoflurane/CO2 inhalation. Blood and brain samples were collected. Total IgG was measured in T. gondii infected mice by ELISA [49].
(§1) Quantification of the cerebral parasite load in non-pregnant mice, dams and pups was carried out with an established real-time PCR method for the detection of T. gondii. The NucleoSpin DNA RapidLyze Kit (Macherey-Nagel, Oensingen, Switzerland) was used for DNA purification according to the standard protocol and DNA concentrations were quantified by the QuantiFluor double-stranded DNA (dsDNA) system (Promega, Madison, WI, USA). Quantitative real-time PCR was performed with the Light Cycler (Roche, Basel, Switzerland), and the parasite load was calculated by including a standard curve of DNA samples from 1000, 100, and 10 T. gondii tachyzoites per run.
(§2) Graph creation and statistical analysis was performed in GraphPad Prism version 5.0 (GraphPad Software, La Jolla, CA, USA). Cerebral parasite burdens were compared between groups by the non-parametric Kruskal–Wallis test, followed by Mann–Whitney U test. Pup mortality over time was depicted by plotting survival events at each time point in Kaplan–Meier graphs and survival curves were compared by the Log-rank (Mantel–Cox) test.

[3] = tested on: Sarcocystis neurona; set-up: method as in PMID 23523012; settings: cited from earlier work
[4] = tested on: T. gondii oocysts; set-up: method as in PMID 8735260; settings: treatment commencing 10 days prior to infection with T. gondii oocysts; cited from earlier work
[5] = set-up: method as in PMID 32626086; settings: cited from earlier work
[6] = tested on: T. gondii TgShSp1 oocysts; assay: RMB060 efficacy assessment in pregnant CD1 mice orally infected with TgShSp1 oocysts; assay type: in vivo
Procedure: Eight-week-old CD1 mice, 29 females and 15 males, were used. After oestrus-synchronization and mating, females were randomly distributed to 3 experimental groups: RMB060, RMB060 + infection (n = 12); C+, corn oil + infection (n = 12); C−, only corn oil (n = 5). Infection was carried out at day 7 post-mating with 100 TgShSp1 oocysts suspended in 100 µL PBS, with the C−group receiving only PBS. Treatments, separation of pregnant and non-pregnant mice, and monitoring were performed as described in Section 4.7. All mice were euthanized 4 weeks p.p. by isoflurane/CO2. Blood and brain samples were collected. Total IgG was measured in T. gondii infected mice by ELISA to see whether drug treatment would have an impact on the humoral immune response.
as §1, §2

[7] = CD1 mice, TgShSp1 oocysts, 10 mg/kg/day oral for 5 days, positive/total adult mice
[8] = brain PCR, surviving pups, 10 mg/kg/day oral for 5 days
[9] = brain PCR, 10 mg/kg/day oral for 5 days
[10] = dead pups/pups born, 10 mg/kg/day oral for 5 days, 10 mg/kg/day
[11] = real-time PCR, 4 weeks p.p., non-pregnant mice and dams
[12] = serum at end of experiment, RIPC, non-pregnant mice and dams

## CCCCCCCCCCOc1cc2c(O)c(C(=O)OCC)cnc2cc1OCC [DCQ, ethyl 6-decyloxy-7-ethoxy-4-oxo-1H-quinoline-3-carboxylate]
[1]
  maximum concentration attained in plasma: 2 µM
[2]; 10 mg/kg/day for 5 days
  Vertical transmission: did not prevent vertical transmission
[2]; 10 mg/kg/day for 5 days, C+ group 40%
  Neonatal pup mortality: 70%
[2]; 10 mg/kg/day oral for 5 days
  No. of Pups/No. of Dams: 92/8
[2]; [7]
  Seropositive for T. gondii: 11/12
[2]; PCR, 10 mg/kg/day for 5 days
  Brain infection detected in adult mice (dams and non-pregnant mice): 11 out of 12
[2]; [8]
  T. gondii Positive Pups: 25/25
[2]; [9]
  T. gondii Positive Dams: 8/8
  T. gondii Positive Non-Pregnant Mice: 3/4
[2]; [10]
  Neonatal Mortality: 64 out of 92 and 64/92
[2]; dead/remaining pups, 1-month follow-up, 10 mg/kg/day oral for 5 days, 10 mg/kg/day
  Postnatal Mortality: 3 of the 28 and 3/28
[2]; [11]
  Cerebral parasite burden compared to the C+ group: No statistically significant differences
[2]; [12]
  T. gondii IgG antibody titers compared to the C+ group: no statistically significant differences
[3]; 10 day treatment at 240 nM
  Activity against S. neurona schizonts: parasiticidal activity
[3]; read-out: IC50 values for S. neurona merozoites
  IC50: 600 to 1100 pM
[4]
  Outcome of prophylactic treatment in ewes: decreased pathological changes in the placental tissue
[5]
  aqueous solubility: 0.06 µg/mL (≈ 0.144 µM)

## CCCCCCCCCCOc1cc2c(OC(=O)N3CCN(S(C)(=O)=O)C3=O)c(C(=O)OCC)cnc2cc1OCC [RMB060]
[6]; 10 mg/kg/day for 5 days
  Vertical transmission: vertical transmission to pups could not be prevented
[6]; 10 mg/kg/day for 5 days, C+ group 9.2%
  Postnatal Mortality: 3.8%
[6]; 10 mg/kg/day for 5 days, C+ group 23%, non-significant
  Neonatal Mortality: 16.8%
[6]; 10 mg/kg/day for 5 days, C+ group 89%
  Surviving pups PCR-positive for T. gondii in the brain: 62%
[6]; 10 mg/kg/day oral for 5 days
  No. of Pups/No. of Dams: 125/10
[6]; [7]
  Seropositive for T. gondii: 8/12
[6]; Kaplan–Meier, Log-rank (Mantel-Cox) test
  Survival curves of pups compared to the C+ group: No statistically significant differences
[6]; PCR, 10 mg/kg/day for 5 days
  Brain infection detected in adult mice (dams and non-pregnant mice): eight out of 12
[6]; [8]
  T. gondii Positive Pups: 62/100
[6]; [9]
  T. gondii Positive Dams: 7/10
  T. gondii Positive Non-Pregnant Mice: 1/2
[6]; [10]
  Neonatal Mortality: 21 out of 125 and 21/125
[6]; dead/remaining pups, 10 mg/kg/day oral for 5 days
  Postnatal Mortality: 4/104
[6]; [11]
  Cerebral parasite burden compared to the C+ group: No statistically significant differences
[6]; [12]
  T. gondii IgG antibody titers compared to the C+ group: no statistically significant differences
